Data set [1] in a line: Hypochlorous acid (HOCl) sensor: fluorescence and absorbance response to added HOCl. The following applies: 0.5 μM compound; for peak emission intensity wavelength: all HOCl concentrations. It is filed as physicochemical. The method, then:
A solution of compound 3 from Table 2 herein was formed at a concentration of 0.5 μM and at a pH of 7.4. HOCl was added to the solution at concentrations ranging up to 2 μM and the fluorescence of the resulting solutions was measured after exposure to an excitatory light pulse of 655 nm.
A solution of compound 29 from Table 5 herein was formed at a concentration of 0.5 μM and at a pH of 7.4. HOCl was added to the solution at concentrations ranging up to 5 μM and the fluorescence of the resulting solutions was measured after exposure to an excitatory light pulse of 580 nm.

A short description of data set [2]: Ratiometric sensor for hypochlorous acid and pH: UV-Vis and fluorescence in buffer series. It is filed as physicochemical. The following applies: excited at 430 nm, all HOCl concentrations, phosphate or citrate/phosphate buffer, 0.5% DMF. The method, then:
A solution of compound 29 from Table 4 herein was dissolved in a series of phosphate buffer or citrate/phosphate buffer solutions using 0.5% DMF for dissolution. The pH level of each sample solution was checked using a digital pH meter (Accumet, AB15) equipped with a glass electrode (Accumet, pH/ATC Calomel) to confirm the pH of each sample solution. After recording the pH of a sample solution, 20 mL of the sample solution was stirred in a 50 mL beaker to saturate the sample solution with oxygen. Small aliquots from a dilute HOCl solution were then added to the sample solution. After the addition of each HOCl aliquot, the sample solution was stirred for approximately 45 seconds and then the UV-Vis and fluorescence of the sample solution was measured using a quartz cuvette with fluorescence excitations at 570 nm and 430 nm. The concentration of the NaOCl solution was determined by using a standardized sodium thiosulfate solution.

On to `CN(C)c1ccc2c(c1)[Si](C)(C)c1cc(N(C)C)ccc1C21SCc2ccccc21` [Compound 3], for which, in data set [1] (pH 7.4, HOCl up to 2 μM, excitation 655 nm), the “peak emission intensity wavelength” value amounted to 663 nm.
On to `C[Si]1(C)c2cc(O)ccc2C2(c3ccccc3C(=O)N2CCN2CCNCCNCCNCC2)c2ccc(O)cc21` [Compound 29], for which the “maximum absorbance wavelength λmax” value in data set [1] (pH 7.4, HOCl up to 5 μM) is on record as 590 nm. Besides, the “shoulder peak emission wavelength” value in data set [1] (pH 7.4, HOCl up to 5 μM, excited at 430 nm) came out at 570 nm. For the same molecule, the “peak emission intensity wavelength” value in data set [1] (pH 7.4, HOCl up to 5 μM, excited at 570 nm) was found to be 605 nm. In data set [2], the “first emission intensity peak wavelength” value is listed as 570 nm and the “second more intense emission peak wavelength” value was found to be 600 nm.

(Values after US9429568B2, “Silaanthracene as a red and near infrared sensor and a method to manufacture such a sensor” (Board of Trustees of Southern Illinois University on Behalf …, priority 2010, dated 2016).)
